The record followed here is patent US4970301A, “2-(piperazinyl)-2-oxoethylene-substituted flavonoid compounds” (Adir et Cie, priority 1987, dated 1990).

pIC50: −log10 of the molar value.

A word on the pIC50: it is the negative decadic logarithm of the IC50, by convention in mol/L. Broadly, the solubility is the concentration that dissolves in the medium under given conditions.

The target in data set [1] is phosphodiesterase. Nature of the data set: Inhibition of the degradation of cyclic AMP by phosphodiesterase (spectrophotometry). The settings on record: rat brain enzyme extract, 25° C., 265 nm. It counts as biochemical. As for the experimental part:
Inhibition of the Degredation Reaction of Cyclic AMP by Phosohodiesterase
The enzyme extract necessary for this study is prepared from rat brain.
After decapitation, the brain is removed, weighed and frozen for half an hour at -70° C. The preparation, maintained in ice, is then diluted and homogenized in 50% glycerol containing 50 mmol tris(hydroxymethyl)aminomethane and 50 mmol magnesium sulfate, in the proportion of 5 ml per gram of brain. The preparation is then centrifuged. The supernatent is distributed in aliquots and stored at 4° C.
In the study, the enzyme extract is incubated :n the presence of cyclic AMP (Boehringer® Ref. 102300), alkaline phosphatase (Boehringer® Ref 108138), adenosine deaminase (Boehringer® Ref. 102091) and increasing amounts of the compounds of the invention. The kinetics of the degredation of cyclic AMP is followed by spectrophotometry at 25° C. A mixture devoid of alkaline phosphatase and adenosine deaminase is used as blank. The measurement of the optical density is carried out at 265 nm. The concentration of the compounds of the invention leading to a 50% inhibition of the enzymatic reaction (IC50) is calculated. Two reference substances, diosmine and theoprylline, are studied according to the same methodology.

The subject of data set [2] is polymorphonuclear leukocytes. In words: Oxygen-containing free radical production by polymorphonuclear leukocytes (chemiluminescence). Type of data set: cell-based. The settings on record: Leukocyte; rat polymorphonuclear leukocytes, Zymosan, Luminol; read-out: IC50, inhibition of the chemiluminescence reaction (free radical production). The text has this:
Evaluation of the Pharmacodynamic Activity with Respect to Oxygen-Containing Free Radicals Produced by Polymorphonuclear Leukocytes The possible pharmacodynamic activity of the compounds of the invention with respect to the production of free radicals by polymorphonuclear leukocytes was investigated in vitro. The cellular model used was rat polymorphonuclear leukocytes. This model is capable of producing free radicals in a manner that can be monitored. The production of free radicals was quantified by measurement of the chemiluminescence, which is proportional to their quantity. Quantities of 2×10^6 polymorphonuclear leukocyte cells, isolated from heparinized rat blood, are mixed with solutions of increasing concentrations of the compounds of the invention (2×10^-4 M to 2×10^-8 M). Appropriate amounts of Hanks' solution, Zymosan® (Sigma 24250) and Luminol® (Merck 82007) are then added successively. The solutions are kept shielded from the light, and transferred rapidly to a liquid scintillation counter. In the "blank" sample, the polymorphonuclear leukocytes are replaced by an equivalent volume of Hanks' solution, and in the "control" sample, the solution of "test compounds" is replaced by a Hanks' solution. The same study was carried out with a reference product: diosmine. The percentage inhibition of free radical production was calculated by the following formula: [formula] Cl control: Maximum chemiluminescence of "control" sample Cl compounds: Maximum chemiluminescence of "test compounds" sample Cl blank: Maximum chemiluminescence of "blank" sample […]

A short description of data set [3]: Solubility in water. Type of data set: physicochemical. The settings on record: addition salt.
In data set [4] the test system is Croton Oil-Induced Edema of the Mouse's Ear. In words: Croton oil-induced edema of the mouse's ear. Type of data set: in vivo, CD1 (Charles River) male mice. The settings on record: single dose, sacrificed six hours after irritation. As for the experimental part: Croton Oil-Induced Edema of the Mouse's Ear This test consists in inflaming the mouse's ears with an irritant solution based on croton oil, and in testing the preventive effect of the test compounds administered per os. The tests were carried out on batches of at least 8 CD1 (Charles River) male mice of average weight 18-20 g. The compounds of the invention were administered by gavage with a tube, in a single dose, on the basis of 0.1 ml of liquid per 10 g of mouse. The mouse was deprived of food, but not of drink, 2 hours before the gavage and until after the irritation. Thirty minutes after the gavage, each mouse was lightly anesthetized with ether. 10 μl of the irritant solution were then deposited by means of an Eppendorf pipette on the cutaneous surface of the pinna of the right ear; the left ear, which was not subjected to any treatment, acted as control. The animal was then replaced in the cage and sacrificed six hours later. The ears were sectioned along the cartilagineous edge and weighed immediately. To assess the activity of the product, the mean increase in weight of the ears of the treated batches (m) is compared by Student's test with that of the untreated control batch (mc).

As for `COc1ccc(-c2cc(=O)c3c(O)cc(O[C@@H]4O[C@H](CO[C@@H]5O[C@@H](C)[C@H](O)[C@@H](O)[C@H]5O)[C@@H](O)[C@H](O)[C@H]4O)cc3o2)cc1O` [DIOSMINE, diosmine, reference compound], the pIC50 in data set [1] is 4.00; in data set [2], 4.40. On to `CCOC(=O)COc1cc(-c2cc(=O)c3c(O)cc(OCC(=O)N4CCN(Cc5ccc(OC)c(OC)c5OC)CC4)cc3o2)ccc1OC` [Example 1 (monophosphate), 7-[2-{4-[(2,3,4-trimethoxyphenyl)methyl]-1-piperazinyl}-2-oxoethoxy-5-hydroxy-4'-methoxy-3'-(2-ethoxy-2-oxoethoxy)flavone monophosphate], for which the solubility in data set [3] is 158 mg/mL.

As for `CCOC(=O)COc1cc(OCC(=O)N2CCN(Cc3ccc(OC)c(OC)c3OC)CC2)c2c(=O)cc(-c3ccc(OC)c(OCC(=O)OCC)c3)oc2c1.Cl` [Example 2 (hydrochloride), 5-[2-{4-[(2,3,4-Trimethoxyphenyl)methyl]-1-piperazinyl}-2-oxoethoxy]-7,3'-bis(2-ethoxy-2-oxoethoxy)-4'-methoxyflavone hydrochloride], the “I (percentage inhibition of ear edema)” value in data set [4] (166 mg.kg^-1 per os, p < 0.05) is -34%. In data set [3], the solubility is 163 mg/mL. Consider `CCOC(=O)COc1cc(OCC(=O)N2CCN(Cc3ccc(OC)c(OC)c3OC)CC2)c2c(=O)cc(-c3ccc(OC)c(OCC(=O)OCC)c3)oc2c1` [Example 2, 5-[2-{4-[(2,3,4-Trimethoxyphenyl)methyl]-1-piperazinyl}-2-oxoethoxy-]-7,3'-bis(2-ethoxy-2-oxoethoxy)-4'-methoxyflavone], for which the pIC50 was 4.70 in data set [1] and 5.40 in data set [2]. Consider `COc1ccc(-c2cc(=O)c3c(O)cc(O[C@@H]4O[C@H](CO[C@@H]5O[C@@H](C)[C@H](O)[C@@H](O)[C@H]5O)[C@@H](O)[C@H](O)[C@H]4O)cc3o2)cc1OCC(=O)N1CCN(Cc2ccc(OC)c(OC)c2OC)CC1` [Example 3 (hemitartrate), 3'-[2-{4-[(2,3,4-Trimethoxyphenyl)methyl]-1-piperazinyl}-2-oxoethoxy]-4'-methoxy-5-hydroxyflavone 7-chamnoglucoside hemitartrate], for which the “I (percentage inhibition of ear edema)” value in data set [4] (200 mg.kg^-1 per os, p < 0.01) is reported as -26%. Moreover, the solubility in data set [3] is 200 mg/mL.

In data set [1], `COc1ccc(-c2cc(=O)c3c(O)cc(O[C@@H]4O[C@H](CO[C@@H]5O[C@@H](C)[C@H](O)[C@@H](O)[C@H]5O)[C@@H](O)[C@H](O)[C@H]4O)cc3o2)cc1OCC(=O)N1CCN(Cc2ccc(OC)c(OC)c2OC)CC1` [Example 3, 3'-[2-{4-[(2,3,4-Trimethoxyphenyl)methyl]-1-piperazinyl}-2-oxoethoxy]-4'-methoxy-5-hydroxyflavone 7-chamnoglucoside] had a pIC50 of 4.60. As for `COc1ccc(-c2cc(=O)c3c(O)cc(O[C@@H]4O[C@H](CO)[C@@H](O)[C@H](O)[C@H]4O)cc3o2)cc1OCC(=O)N1CCN(Cc2ccc(OC)c(OC)c2OC)CC1` [Example 4 (monophosphate), 3'-[2-{4-[(2,3,4-Trimethoxyphenyl)methyl]-1-piperazinyl}-2-oxoethoxy]-4'-methoxy-5-hydroxyflavone 7β-glucoside monophosphate], in data set [4] (173 mg.kg^-1 per os, p < 0.05), the “I (percentage inhibition of ear edema)” value was -28%. Further, in data set [3], the solubility came out at 43 mg/mL. `COc1ccc(-c2cc(=O)c3c(O)cc(O)cc3o2)cc1OCC(=O)N1CCN(Cc2ccc(OC)c(OC)c2OC)CC1` [Example 5 (methanesulfonate), 3'-[2-{4-[(2,3,4-trimethoxyphenyl)methyl]-1-piperazinyl}-2-oxoethoxy]-4'-methoxy-5,7-dihydroxyflavone]: the solubility in data set [3] turned out to be 35 mg/mL. Consider `CCOC(=O)COc1cc(O)c2c(=O)cc(-c3ccc(OC)c(OCC(=O)N4CCN(Cc5ccc(OC)c(OC)c5OC)CC4)c3)oc2c1` [Example 6 (monophosphate), 3'[2-{4-[(2,3,4-Trimethoxyphenyl)methyl]-1-piperazinyl}-2-oxoethoxy]-4'-methoxy-5-hydroxy-7-(2-ethoxy-2-oxoethyoxy)flavone phosphate], for which, in data set [3], the solubility worked out at 39.5 mg/mL. For the compound `CCOC(=O)COc1cc(O)c2c(=O)cc(-c3ccc(OC)c(OCC(=O)N4CCN(Cc5ccc(OC)c(OC)c5OC)CC4)c3)oc2c1` [Example 6, 3'-[2-{4-[(2,3,4-Trimethoxyphenyl)methyl]-1-piperazinyl}-2-oxoethoxy]-4'-methoxy-5-hydroxy-7-(2-ethoxy-2-oxoethoxy)flavone], the pIC50 in data set [2] was 5.00.

As to `COc1ccc(-c2cc(=O)c3c(O)cc(OCC(=O)N4CCN(Cc5ccc(OC)c(OC)c5OC)CC4)cc3o2)cc1OCC(=O)N1CCN(Cc2ccc(OC)c(OC)c2OC)CC1` [Example 7 (biphosphate), 7,3'-Bis[2-{4-[(2,3,4-trimethoxyphenyl)methyl]-1-piperazinyl}-2-oxoethoxy]-5-hydroxy-4'-methoxyflavone biphosphate], in data set [3], the solubility was 221 mg/mL. Turning to `COc1ccc(-c2cc(=O)c3c(O)cc(OCC(=O)N4CCN(Cc5ccc(OC)c(OC)c5OC)CC4)cc3o2)cc1OCC(=O)N1CCN(Cc2ccc(OC)c(OC)c2OC)CC1` [Example 7, 7,3'-Bis[2-{4-[(2,3,4-trimethoxyphenyl)methyl]-1-piperazinyl}-2-oxoethoxy]-5-hydroxy-4'-methoxyflavone], in data set [1], the pIC50 is 5.00.

For `COc1ccc(C2CC(=O)c3c(O)cc(OCC(=O)N4CCN(Cc5ccc(OC)c(OC)c5OC)CC4)cc3O2)cc1O.CS(=O)(=O)O` (stereo not drawn) [Example 8 (methanesulfonate), 7-[2-{4-[(2,3,4-Trimethoxyphenyl)methyl]-1-piperazinyl}-2-oxoethoxy]-5,3'-dihydroxy-4'-methoxyflavanone methanesulfonate], the solubility in data set [3] amounted to 1.4 mg/mL. Take `COc1ccc(C2CC(=O)c3c(O)cc(OCC(=O)N4CCN(Cc5ccc(OC)c(OC)c5OC)CC4)cc3O2)cc1O` (stereo not drawn) [Example 8, 7-[2-{4-[(2,3,4-Trimethoxyphenyl)methyl]-1-piperazinyl}-2-oxoethoxy]-5,3'-dihydroxy-4'-methoxyflavanone]: the pIC50 in data set [1] was 4.24; in data set [2], 4.82. The compound `Cn1c(=O)c2[nH]cnc2n(C)c1=O` [THEOPHYLLINE, theophylline, reference compound] showed a negative-log IC50 (pIC50) in data set [1] of 3.00.
